Measurements published in PubChem BioAssay (NCI).
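Cells were grown in 96-well plates and exposed to each compound for 48 hours at five concentrations; endpoints were interpolated linearly between bracketing concentrations, or set to the highest concentration if not reached. At the TGI there is no net growth.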

Assays:
Test in all cases: growth of human tumour cells (NCI), 48 h
MALME-3M melanoma = test system: MALME-3M melanoma
EKVX NSCLC = test system: EKVX NSCLC
HCT-116 colon = test system: HCT-116 colon
CAKI-1 renal = test system: CAKI-1 renal
OVCAR-3 ovarian = test system: OVCAR-3 ovarian
NCI-H460 lung = test system: NCI-H460 lung
SNB-19 CNS = test system: SNB-19 CNS
IGROV1 ovarian = test system: IGROV1 ovarian
HT29 colon = test system: HT29 colon
RPMI-8226 leukemia = test system: RPMI-8226 leukemia

Structure (SMILES) | TGI (MALME-3M melanoma) [µM] | TGI (EKVX NSCLC) [µM] | TGI (HCT-116 colon) [µM] | TGI (CAKI-1 renal) [µM] | TGI (OVCAR-3 ovarian) [µM] | TGI (NCI-H460 lung) [µM] | TGI (SNB-19 CNS) [µM] | TGI (IGROV1 ovarian) [µM] | TGI (HT29 colon) [µM] | TGI (RPMI-8226 leukemia) [µM]
FC(F)(F)C1(C(F)(F)F)OC(Cl)(Cl)C(Cl)(Cl)O1 | > 10 | > 10 | > 10 | > 10 | > 10 | > 10 | > 10 | > 10 | > 10 | 
C=C(Br)C(Cl)(CBr)CCC(Br)C(C)(C)Cl (configuration not stated) |  | > 10 | > 10 | > 10 | > 10 |  | > 10 | > 10 | > 10 | > 10
Nc1ccccc1Sc1ccc(Cl)cc1 | > 100 | 76.9 | > 100 |  | 72.1 | 68.9 |  | > 100 | 36.3 | 67.9
Cc1ccc(S(=O)(=O)OCC23CCC(C4CC42)C2CC23)cc1 (configuration not stated) | > 100 |  | > 100 | > 100 | > 100 | > 100 | > 100 | > 100 | > 100 | > 100
C=C1CC(CNc2cc(Cl)nc(N)n2)C1 | > 100 | > 100 |  | > 100 | > 100 | > 100 | > 100 | > 100 | > 100 | > 100
Cc1ccc(NC(=S)NNC(=O)c2cc(-c3ccccc3)nc3ccccc23)cc1C | 43.6 |  | 36.9 | > 100 |  | 38.7 | 93.2 | 63.6 | 49.2 | 59.2
CCOC(=O)NNC1(SC)NC(=O)c2c(cc(Cl)oc2=O)O1 (configuration not stated) |  | 20.4 | 3.08 | 8.02 | 10.9 | 23.7 | 25.4 | 14.5 | 5.26 | 7.65
CC1(C)SC2C(NC(=O)Cc3ccccc3)C(=O)N2C1C(=O)O (configuration not stated) | > 100 | > 100 | > 100 | > 100 | > 100 | > 100 | > 100 | > 100 | > 100 | 
CSCCCNC(=O)c1csc([C@@H](CSC)NC(=O)CCNC(=O)[C@@H](NC(=O)OCC(Br)(Br)Br)C(C)O)n1 (some centres not stated) | > 100 | > 100 | > 100 | > 100 | > 100 | > 100 | > 100 | > 100 | > 100 | 
CC(C)(C)OC(=O)/C=C/C(=O)O/C=C/[N+](=O)[O-] |  | > 100 | > 100 | > 100 | > 100 | > 100 |  | > 100 | > 100 | > 100
COc1ccc(/C=N/n2c(Cc3ccc(Cl)cc3)n[nH]c2=O)cc1 |  | > 100 | > 100 | > 100 | > 100 | > 100 | 35.6 | 48 | 28.2 | > 100
C=CCN1C(=O)/C(=C/c2cccs2)N=C1SC1OC(COC(=O)c2ccccc2)C(OC(=O)c2ccccc2)C1OC(=O)c1ccccc1 (configuration not stated) | > 100 | > 100 |  | > 100 | > 100 | > 100 |  | > 100 |  | > 100
Cc1ccc(NNc2cc(=O)[nH]c(=O)[nH]2)cc1Cl | 31.9 |  | 28.1 | 28.4 | 28 | > 100 | > 100 | 27.6 | 28.7 | 49.2
O=C(/C(Cl)=C/c1ccccc1)c1ccccc1 | 4.39 | 25.6 | 2.78 | 3.97 | 8.36 | 30.5 | 29.3 |  | 3.52 | > 46.2
COc1ccc(S(=O)Cc2cc(OC)ccc2OC)cc1 (configuration not stated) | > 100 | > 100 | > 100 | > 100 | > 100 | > 100 | > 100 | > 100 | > 100 | 
O=C(NCCCCNCCCNC(=O)C(F)(F)F)C(F)(F)F |  | > 100 | > 100 | > 100 | > 100 | > 100 | > 100 | > 100 | > 100 | > 100
Cc1cc2c(cc1Cl)Sc1nnc(C)n1S2(=O)=O | 22.8 | 34.3 | 45.4 | 29.9 | 29.6 | 78.5 | 86.5 | 29.1 | 45.8 | 
